Measurements as given in publication PMC8548585, “Triazolopyrimidine herbicides are potent inhibitors of Aspergillus fumigatus acetohydroxyacid synthase and potential antifungal drug leads” (Scientific Reports, 2021).

How the values were obtained:
A. fumigatus = experiment: Antifungal susceptibility assay (broth microdilution MIC); format: cell-based; settings: Aspergillus fumigatus; A. fumigatus strain ATCC MYAA 3626, 35 °C, 48 h, no observable growth
A. nidulans = experiment: as above; format: cell-based; settings: Aspergillus nidulans, 35 °C, 48 h, no observable growth
[1] = target: CaAHAS (C. albicans AHAS); set-up: method as in earlier work; settings: shown for comparison; ref 13 (Garcia et al.); cited from earlier work
A. niger = experiment: Antifungal susceptibility assay (broth microdilution MIC); format: cell-based; settings: Aspergillus niger, 35 °C, 48 h, no observable growth
A. flavus = experiment: as above; format: cell-based; settings: Aspergillus flavus, 35 °C, 48 h, no observable growth

SMILES: CCOc1nc(F)cc2nc(S(=O)(=O)Nc3c(Cl)cccc3C(=O)OC)nn12 [CSM]
- MIC (A. fumigatus): > 100 µg/mL
- MIC (A. nidulans): > 100 µg/mL
- Ki [1]: 4.6 ± 1.2 nM
- MIC (A. niger): > 100 µg/mL
- MIC (A. flavus): > 100 µg/mL

SMILES: COC(=O)c1csc(C)c1S(=O)(=O)NC(=O)n1nc(OC)n(C)c1=O [TCM]
- MIC (A. fumigatus): > 100 µg/mL
- MIC (A. nidulans): > 100 µg/mL
- Ki [1]: 28000 nM
- MIC (A. niger): > 100 µg/mL
- MIC (A. flavus): > 100 µg/mL

SMILES: COc1cc(OC)n2nc(NS(=O)(=O)c3c(C(F)(F)F)ccnc3OC)nc2n1 [PYS]
- MIC (A. fumigatus): > 100 µg/mL
- MIC (A. nidulans): > 100 µg/mL
- Ki [1]: 212 ± 18 nM
- MIC (A. niger): > 100 µg/mL
- MIC (A. flavus): > 100 µg/mL
